Article PMC11623308 (2023)

Test system: 5'-biotin NRAS-G4 (RNA, G4) UGUGGGAGGGGCGGGUCUGGG
Experiment: SPR
Conditions: K+ 100 mM; 10 mM Tris pH 6.9, 0.005% Tween 20, 5% DMSO; Langmuir 1:1 fit

CN(C)c1ccc(Nc2c3ccc(NC(=O)CCN4CCCC4)cc3nc3cc(NC(=O)CCN4CCCC4)ccc23)cc1
KD: 0.079 ± 0.0012 µM
